Assay results taken from patent US20220288037A1, “PRODRUGS AND FORMULATIONS THEREOF” (BOARD OF REGENTS OF THE UNIVERSITY OF NEBRASKA, priority 2019, published 2022).

Test: aqueous solubility of prodrug
Type: physicochemical
Settings: prodrug compared with parent drug, FIG. 1B
Source text: FIGS. 1A-1D provide characterization of a prodrug of nitazoxanide ([…]) and a nanoformulation thereof (NM1NTZ). FIG. 1A provides a Fourier transform infrared (FT-IR) spectrum of […] showing absorption bands at 2915 cm^-1 and 2850 cm^-1, thereby confirming formation of the prodrug as well as the nuclear magnetic resonance spectroscopy of the compound. FIG. 1B provides a graph of the aqueous solubility of […]. […] FIG. 1C provides a graph of cell viability as evaluated by mitochondrial function in monocyte-derived macrophage (MDM) by a 3-(4,5-dimethylthiazol-2-yl)-2,5-diphenyltetrazolium bromide (MTT) assay. NM1NTZ exerted no adverse effects to cell viability at 400 μM of drug or less. FIG. 1D provides graphs showing the particle size, polydispersity index (PDI) and charge of the nanoformulations over time, thereby showing the stability of the nanoparticles.

SMILES: CCCCCCCCCCCCCCCCCC(=O)Oc1ccccc1C(=O)Nc1ncc([N+](=O)[O-])s1 [M1NTZ]
- aqueous solubility: decreased water solubility
